Assay results from the NIST ThermoML archive (doi:10.1016/j.fluid.2006.09.021).
± gives the expanded uncertainty stated by the source.

Details: Liquid, Closed cell (Static) method

With `S` [hydrogen sulfide] the “vapor or sublimation pressure” value (223.19 K) was 167.4 ± 1.3 kPa, the “vapor or sublimation pressure” value (228.2 K) was 209.1 ± 1.3 kPa and the “vapor or sublimation pressure” value (233.11 K) was 257.4 ± 1.3 kPa. The “vapor or sublimation pressure” value (238.04 K) was 313.9 ± 1.3 kPa, the “vapor or sublimation pressure” value (243.04 K) was 380.1 ± 1.4 kPa and the “vapor or sublimation pressure” value (248.01 K) was 456.7 ± 1.5 kPa. The “vapor or sublimation pressure” value (252.97 K) was 544.2 ± 1.5 kPa, the “vapor or sublimation pressure” value (258.01 K) was 644.5 ± 1.6 kPa and the “vapor or sublimation pressure” value (263 K) was 757.7 ± 1.8 kPa. The “vapor or sublimation pressure” value (268.02 K) was 885.7 ± 1.9 kPa, the “vapor or sublimation pressure” value (273.17 K) was 1032.3 ± 2.1 kPa and the “vapor or sublimation pressure” value (278.24 K) was 1194.1 ± 2.3 kPa. For the same molecule, the “vapor or sublimation pressure” value (283.26 K) was 1371.1 ± 2.5 kPa, the “vapor or sublimation pressure” value (288.31 K) was 1566.6 ± 2.8 kPa and the “vapor or sublimation pressure” value (293.1 K) was 1767.9 ± 3.3 kPa. The “vapor or sublimation pressure” value (293.3 K) was 1779.5 ± 3.3 kPa, the “vapor or sublimation pressure” value (298.41 K) was 2022.2 ± 3.5 kPa and the “vapor or sublimation pressure” value (303.08 K) was 2259.6 ± 3.9 kPa. For the same molecule, the “vapor or sublimation pressure” value (313.11 K) was 2847.2 ± 4.8 kPa, the “vapor or sublimation pressure” value (323.18 K) was 3540.4 ± 5.9 kPa and the “vapor or sublimation pressure” value (333.17 K) was 4339.5 ± 7.2 kPa. For the same molecule, the “vapor or sublimation pressure” value (343.16 K) was 5261.2 ± 8.7 kPa, the “vapor or sublimation pressure” value (353.17 K) was 6319.2 ± 10 kPa and the “vapor or sublimation pressure” value (363.16 K) was 7533 ± 12 kPa. For the same molecule, the “vapor or sublimation pressure” value (373.15 K) was 8932.1 ± 14 kPa.
